Drawing on patent US8754220B2, “Quinolizidinone carboxamide M1 receptor positive allosteric modulators” (Merck Sharp & Dohme Corp., priority 2009, dated 2014), this text covers EC50 for 19 compounds.

The structures appear in SMILES notation. Like-named read-outs stand apart in the source and are kept apart here.

The target of this assay is T1, acetylcholine muscarinic M1 receptor (CHOnfat/hM1 cells) (Homo sapiens, UniProt P11229).
T1 construct: expressed in transfected cells; host or cells: CHOnfat (CHO cells; selected with Geneticin)
T1 sequence (P11229 1-460): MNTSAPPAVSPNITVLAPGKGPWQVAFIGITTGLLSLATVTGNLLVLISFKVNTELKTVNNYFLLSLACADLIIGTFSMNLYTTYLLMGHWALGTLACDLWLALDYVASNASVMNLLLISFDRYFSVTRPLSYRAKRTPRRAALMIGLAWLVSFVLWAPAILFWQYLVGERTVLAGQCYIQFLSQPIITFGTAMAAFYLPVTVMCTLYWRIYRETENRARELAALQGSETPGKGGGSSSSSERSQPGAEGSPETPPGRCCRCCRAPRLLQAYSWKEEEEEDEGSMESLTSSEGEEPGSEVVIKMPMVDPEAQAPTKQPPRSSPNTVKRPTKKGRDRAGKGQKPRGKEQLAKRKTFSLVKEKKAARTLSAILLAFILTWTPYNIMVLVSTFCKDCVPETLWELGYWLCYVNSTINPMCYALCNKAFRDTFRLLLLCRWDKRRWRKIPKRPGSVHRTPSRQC
Description: FLIPR intracellular calcium assay for M1 positive allosteric modulator activity (acetylcholine EC20). It counts as cell-based. Here is the method: The assay studies the effect of one or several concentrations of test compounds on basal or acetylcholine-stimulated Ca^2+ levels using FLIPR.
Compounds are prepared and subjected to a preincubation period of 4 min. Thereafter, a single EC20 concentration of acetylcholine is added to each well (3 nM final). The intracellular Ca^2+ level of each sample is measured and compared to an acetylcholine control to determine any modulatory activity.
Cells: CHOnfat/hM1, hM2, hM3 or hM4 cells are plated 24 hr before the assay at a density of 18,000 cells/well (100 μL) in a 384 well plate. CHOnfat/hM1 and CHOnfat/hM3 Growth Medium: 90% DMEM (Hi Glucose); 10% HI FBS; 2 mM L-glutamine; 0.1 mM NEAA; Pen-Strep; and 1 mg/ml Geneticin, are added. For M2Gqi5CHOnfat and M4Gqi5CHOnfat cells, an additional 600 μg/ml hygromycin is added.
Equipment: 384 well plate, 120 μL addition plate; 96-well Whatman 2 ml Uniplate Incubator, 37° C., 5% CO2; Skatron EMBLA-384 Plate Washer; Multimek Pipetting System; Genesis Freedom 200 System; Mosquito System; Temo Nanoliter Pipetting System; and FLIPR^384 Fluorometric Imaging Plate Reader System are used.
Buffers. Assay Buffer: Hanks Balanced Salt Solution, with 20 mM Hepes, 2.5 mM Probenecid (Sigma P-8761) first dissolved in 1 N NaOH, 1% Bovine Serum Albumin (Sigma A-9647). Dye Loading Buffer: Assay Buffer plus 1% Fetal Bovine Serum and Fluo-4AM/Pluronic Acid Mixture. 2 mM Fluo-4AM ester stock in DMSO (Molecular Probes F-14202) Concentration of 2 μM in buffer for a final concentration of 1 μM in Assay. 20% Pluronic Acid Solution stock, with concentration of 0.04% in Buffer, 0.02% in Assay.
65 μL of 2 mM Fluo-4AM are mixed with 130 μL of 20% Pluronic Acid. The resulting solution and 650 μL FBS is added to the assay buffer for a total volume of 65 mL. Positive Controls: 4-Br-A23187: 10 mM in DMSO; final concentration 10 μM. Acetylcholine: 10 mM in water, working stock at both 20 μM and 30 μM in assay buffer, final concentration of 10 μM. This is used to check the maximum stimulation of the CHOK1/hM1 cells. 20 μM (2×) acetylcholine is added in the preincubation part of the assay, and the 30 μM (3×) stock is added in the second part. (EC20) Acetylcholine: 10 mM in water, working stock of 9 nM (3×), and final concentration in assay is 3 nM. This is used after the preincubation with test compounds. Addition of the EC20 Acetylcholine to each well with a test compound will ascertain any modulator activity. 24 wells contain 3 nM Acetylcholine alone as a control.
Screening Plate: Compounds are titrated in 96-well plates (columns 2-11), 100% DMSO, started at a concentration of 15 mM (150× stock concentration), and 3-fold serial dilutions using Genesis Freedom200 System. Four 96-well plates are combined into a 384-well plate using Mosquito Nanoliter Pipetting System by transferring 1 μl of serial diluted compounds to each well, and 1 mM acetylcholine (100× stock concentration) were added as a control. Using Temo, 49 μl assay buffer is added to each well of the 384-well plate right before assay.
In a 96-well Whatman 2 ml Uniplate, 9 nM Acetylcholine (3×) is pipetted into wells corresponding to the screening compounds, and into control wells. The 30 μM acetylcholine control (3×) is added into control wells, and the 3× agonist plate is transferred into a 384 well plate.
Cells are washed three times with 100 μL of buffer, leaving 30 μL of buffer in each well. Using Multimek, 30 μL of Dye Loading Buffer is added into each well and incubated at 37° C., 5% CO2 for up to one hr.
After 60 min, the cells are washed three times with 100 μL of buffer, leaving 30 μL of buffer in each well. The cell plate, screening plate, and agonist addition plates are placed on the platform in the FLIPR and the door closed. A signal test to check background fluorescence and basal fluorescence signal is performed. Laser intensity is adjusted if necessary. […]

[1] abbreviates: CHOnfat/hM1 cells, 4 min preincubation, then EC20 acetylcholine (3 nM final), FLIPR Ca2+, read-out: IP Value (inflection point).

As to `N#CC1(c2ccccn2)CCN(Cc2cc(C(=O)N[C@H]3CCOC[C@@H]3O)c(=O)n3ccccc23)CC1` (racemic) [Example 7, rac-1-[(4-Cyano-4-pyridin-2-ylpiperidin-1yl)methyl]-N-[(3R,4S)-3-hydroxytetrahydro-2H-pyran-4-yl]-4-oxo-4H-quinolizine-3-carboxamide], the EC50 is 25 nM.

As for `N#CC1(c2ccccn2)CCN(Cc2cc(C(=O)N[C@H]3COCC[C@@H]3O)c(=O)n3ccccc23)CC1` (racemic) [Example 8, rac-1-[(4-Cyano-4-pyridin-2-ylpiperidin-1yl)methyl]-N-[(3R,4R)-4-hydroxytetrahydro-2H-pyran-3-yl]-4-oxo-4H-quinolizine-3-carboxamide], the EC50 under setting [1] turned out to be 220 nM.

For `N#CC1(c2ccccn2)CCN(Cc2cc(C(=O)N[C@H]3CCCC[C@@H]3Br)c(=O)n3ccccc23)CC1` (racemic) [Example 13, rac-N-[(1R,2R)-2-Bromocyclohexyl)-1-[(4-cyano-4-pyridin-2-ylpiperidin-1-yl)methyl]-4-oxo-4H-quinolizine-3-carboxamide], under setting [1], the EC50 turned out to be 480 nM.

Turning to `C[C@]1(O)CCCC[C@@H]1NC(=O)c1cc(CN2CCC(C#N)(c3ccccn3)CC2)c2ccccn2c1=O` (racemic) [Example 14, rac-1-[(4-Cyano-4-pyridin-2-ylpiperidin-1-yl)methyl]-N-[(1R,2R)-2-hydroxy-2-methylcyclohexyl]-4-oxo-4H-quinolizine-3-carboxamide], the EC50 turned out to be 93 nM.

As to `CS[C@H]1CCCC[C@@H]1NC(=O)c1cc(CN2CCC(C#N)(c3ccccn3)CC2)c2ccccn2c1=O` (racemic) [Example 16, rac-1-[(4-Cyano-4-pyridin-2-ylpiperidin-1-yl)methyl]-N-[(1R,2R)-2-(methylthio)cyclohexyl]-4-oxo-4H-quinolizine-3-carboxamide], the EC50 under setting [1] was found to be 180 nM.

Turning to `C[S@@+]([O-])[C@H]1CCCC[C@@H]1NC(=O)c1cc(CN2CCC(C#N)(c3ccccn3)CC2)c2ccccn2c1=O` (racemic) [Example 17, rac-1-[(4-Cyano-4-pyridin-2-ylpiperidin-1-yl)methyl]-N-{(1R,2R)-2-[(S)-methylsulfinyl]cyclohexyl}-4-oxo-4H-quinolizine-3-carboxamide], the EC50 under setting [1] is 2600 nM.

In the case of `CS(=O)(=O)[C@H]1CCCC[C@@H]1NC(=O)c1cc(CN2CCC(C#N)(c3ccccn3)CC2)c2ccccn2c1=O` (racemic) [Example 18, rac-1-[(4-Cyano-4-pyridin-2-ylpiperidin-1-yl)methyl]-N-[(1R,2R)-2-(methylsulfonyl)cyclohexyl]-4-oxo-4H-quinolizine-3-carboxamide], the EC50 under setting [1] is 800 nM.

For `C[C@H]1COCC[C@@H]1NC(=O)c1cc(CN2CCC(C#N)(c3ccccn3)CC2)c2ccccn2c1=O` (racemic) [Example 21, rac-1-[(4-Cyano-4-pyridin-2-ylpiperidin-1-yl)methyl]-N-[(3R,4S)-3-methyltetrahydro-2H-pyran-4-yl]-4-oxo-4H-quinolizine-3-carboxamide], the EC50 under setting [1] was determined as 380 nM.

With `N#CC1(c2ccccn2)CCN(Cc2cc(C(=O)NC3CCOCC3)c(=O)n3ccccc23)CC1` [Example 1, 1-[(4-Cyano-4-pyridin-2-ylpiperidin-1-yl)methyl]-4-oxo-4H—N-(tetrahydro-2H-pyran-4-yl)-4H-quinolizine-3-carboxamide], under setting [1], the EC50 turned out to be 340 nM.

Take `O=C(N[C@H]1CCCC[C@@H]1O)c1cc(Cc2ccc(Br)cn2)c2ccccn2c1=O` [Example 2, 1-[(5-Bromopyridin-2-yl)methyl]-N-[(1S,2S)-2-hydroxycyclohexyl]-4-oxo-4H-quinolizine-3-carboxamide]: under setting [1], the EC50 came out at 105 nM.

In the case of `Cn1cc(-c2ccc(Cc3cc(C(=O)N[C@H]4CCCC[C@@H]4O)c(=O)n4ccccc34)nc2)cn1` [Example 3, N-[(1S,2S)-2-Hydroxycyclohexyl]-{-[5-(1-methyl-1H-pyrazol-4-yl)pyridine-2-yl]methyl}-4-oxo-4H-quinolizine-3-carboxamide], under setting [1], the EC50 is 15 nM.

As for `O=C(N[C@H]1CCCC[C@@H]1O)c1cc(Cc2ccc(-n3cccn3)cn2)c2ccccn2c1=O` [Example 4, N-[(1S,2S)-2-Hydroxycyclohexyl]-4-oxo-1-{[5-(1H-pyrazol-1-yl)pyridine-2-yl]methyl}-4H-quinolizine-3-carboxamide], under setting [1], the EC50 worked out at 444 nM.

For `O=C(N[C@H]1CCCC[C@@H]1O)c1cc(CN2CCN(c3ccc(C(F)F)nc3)CC2)c2ccccn2c1=O` [Example 5, 1-({4-[6-(Difluoromethyl)pyridine-3-yl]piperazin-1-yl}methyl)-N-[(1S,2S)-2-hydroxycyclohexyl]-4-oxo-4H-quinolizine-3-carboxamide], under setting [1], the EC50 worked out at 210 nM.

For `Cn1cc(N2CCN(Cc3cc(C(=O)N[C@H]4CCCC[C@@H]4O)c(=O)n4ccccc34)CC2=O)cn1` [Example 6, N-[(1S,2S)-2-Hydroxycyclohexyl]-1-{[4-(1-methyl-1H-pyrazol-4-yl)-3-oxopiperazin-1-yl]methyl}-4-oxo-4H-quinolizine-3-carboxylate], the EC50 under setting [1] is 170 nM.

Consider `N#CC1(c2ccccc2)CCN(Cc2cc(C(=O)N[C@@H]3CCOC[C@H]3O)c(=O)n3ccccc23)CC1` [Example 9, 1-[(4-Cyano-4-phenylpiperidin-1-yl)methyl]-N-[(3S,4R)-3-hydroxytetrahydro-2H-pyran-4-yl]-4-oxo-4H-quinolizine-3-carboxamide], for which the EC50 came to 530 nM.

For `N#CC1(c2ncc(Br)cc2Br)CCN(Cc2cc(C(=O)N[C@H]3CCOC[C@@H]3O)c(=O)n3ccccc23)CC1` [Example 10, 1-{[4-Cyano-4-(3,5-dibromopyridin-2-yl)piperidin-1-yl]methyl}-N-[(3R,4S)-3-hydroxytetrahydro-2H-pyran-4-yl]-4-oxo-4H-quinolizine-3-carboxamide], the EC50 is 14 nM.

Turning to `N#CC1(c2ccccc2)CCN(Cc2cc(C(=O)N[C@H]3COCC[C@@H]3O)c(=O)n3ccccc23)CC1` [Example 11, 1-[(4-Cyano-4-phenylpiperidin-1-yl)methyl]-N-[(3S,4S)-4-hydroxytetrahydro-2H-pyran-3-yl]-4-oxo-4H-quinolizine-3-carboxamide], the EC50 was 560 nM.

Take `N#CC1(c2ccccc2Br)CCN(Cc2cc(C(=O)N[C@H]3CCCC[C@@H]3O)c(=O)n3ccccc23)CC1` [Example 12]: the EC50 was found to be 24 nM.

Consider `N#CC1(c2ccccn2)CCN(Cc2cc(C(=O)N[C@@H]3CCCCC3=O)c(=O)n3ccccc23)CC1` [Example 15, 1-[(4-Cyano-4-pyridin-2-ylpiperidin-1-yl)methyl]-4-oxo-N-[(1R)-2-oxocyclohexyl]-4H-quinolizine-3-carboxamide], for which the EC50 under setting [1] is 660 nM.
